Assay results from patent publication US11427548B2 (Arvinas Operations, Inc., priority 2015, dated 2022).
Read-outs that look alike come from different tables or passages of the source.

Molecular target: T1, Androgen Receptor (Homo sapiens, UniProt P10275)
T1 construct: endogenous in cells; host or cells: VCaP cells
T1 sequence (P10275 1-920): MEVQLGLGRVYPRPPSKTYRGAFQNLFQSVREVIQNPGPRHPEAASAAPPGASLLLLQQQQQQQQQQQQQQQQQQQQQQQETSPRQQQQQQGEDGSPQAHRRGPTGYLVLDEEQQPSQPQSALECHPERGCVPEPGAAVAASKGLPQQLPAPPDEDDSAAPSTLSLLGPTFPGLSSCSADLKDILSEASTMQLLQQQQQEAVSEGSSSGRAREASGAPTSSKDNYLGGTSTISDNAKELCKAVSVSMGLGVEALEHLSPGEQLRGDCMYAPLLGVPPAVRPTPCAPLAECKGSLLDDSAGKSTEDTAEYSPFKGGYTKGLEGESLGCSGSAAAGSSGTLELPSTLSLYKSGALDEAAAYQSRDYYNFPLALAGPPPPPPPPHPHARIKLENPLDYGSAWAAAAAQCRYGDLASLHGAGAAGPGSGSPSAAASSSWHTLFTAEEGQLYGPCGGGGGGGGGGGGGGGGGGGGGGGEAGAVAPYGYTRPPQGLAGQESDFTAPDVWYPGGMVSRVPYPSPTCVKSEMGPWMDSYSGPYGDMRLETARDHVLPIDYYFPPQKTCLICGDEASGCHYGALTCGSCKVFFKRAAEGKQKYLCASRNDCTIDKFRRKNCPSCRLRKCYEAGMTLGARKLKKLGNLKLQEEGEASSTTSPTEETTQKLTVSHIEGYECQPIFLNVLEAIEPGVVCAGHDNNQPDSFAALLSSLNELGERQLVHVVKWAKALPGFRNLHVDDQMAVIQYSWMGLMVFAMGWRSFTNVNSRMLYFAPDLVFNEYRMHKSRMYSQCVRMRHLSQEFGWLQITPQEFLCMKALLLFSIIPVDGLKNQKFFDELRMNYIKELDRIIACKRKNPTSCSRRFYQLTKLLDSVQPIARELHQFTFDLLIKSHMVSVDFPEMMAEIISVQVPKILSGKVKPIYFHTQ
Experiment: Androgen Receptor ELISA assay (PathScan AR ELISA) in VCaP cells: AR degradation, Dmax and DC50
Assay type: cell-based
How it was run: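 VCaP cells, 30,000/well, grown ≥3 days in phenol red-free RPMI with 5% charcoal-stripped FBS; compound added in 0.1% DMSO with 0.1 nM R1881, 7 half-log doses, 24 h. Lysate AR quantified by PathScan sandwich ELISA, HRP/TMB read at 450 nm, giving DC50 and Dmax.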

[1] = read-out: VCaP DC50; VCaP cells; Table 36
[2] = VCaP cells; Table 36; read-out: VCaP DC50
[3] = VCaP, VCaP cells; Table 36; read-out: VCaP Dmax (%)

Cc1ncsc1-c1ccc([C@H](C)NC(=O)[C@@H]2CC3CN2C(=O)C(C(C)(C)C)NC(=O)COCCCOCCC(CCOc2ccc(N4C(=S)N(c5ccc(C#N)c(C(F)(F)F)c5)C(=O)C4(C)C)cc2)OC(=O)CC/C=C/CCC(=O)O3)cc1 (stereo partly drawn) [Example 619, (3S,25R,27S,E)-3-(tert-butyl)-14-(2-(4-(3-(4-cyano-3-(trifluoromethyl)phenyl)-5,5-dimethyl-4-oxo-2-thioxoimidazolidin-1-yl)phenoxy)ethyl)-N-((S)-1-(4-(4-methylthiazol-5-yl)phenyl)ethyl)-2,5,16,23-tetraoxo-7,11,15,24-tetraoxa-1,4-diazabicyclo[23.2.1]oct-acos-19-ene-27-carboxamide]
Dmax (VCaP, read-out: VCaP Dmax (%)): < 25% | DC50 [1]: > 501 nM

Cc1ncsc1-c1ccc([C@H](C)NC(=O)[C@@H]2CC3CN2C(=O)C(C(C)(C)C)NC(=O)COCCCOCCC(CCOc2ccc(N4C(=S)N(c5ccc(C#N)c(C(F)(F)F)c5)C(=O)C4(C)C)cc2)OC(=O)CC/C=C/CCC(=O)O3)cc1 (stereo partly drawn) [Example 620, (3S,25R,27S,E)-3-(tert-butyl)-14-(2-(4-(3-(4-cyano-3-(trifluoroemthyl)phenyl)-5,5-dimethyl-4-oxo-2-thioxoimidazolidin-1-yl)phenoxy)ethyl)-N-((S)-1-(4-(4-methylthiazol-5-yl)phenyl)ethyl)-2,5,16,23-tetraoxo-7,11,15,24-tetraoxa-1,4-diazabicyclo[23.2.1]oct-acos-19-ene-27-carboxamide]
DC50 [1]: > 501 nM

Cc1ncsc1-c1ccc([C@H](C)NC(=O)[C@@H]2C[C@@H]3CN2C(=O)[C@H](C(C)(C)C)NC(=O)COCCCOCCC(CCOc2ccc(N4C(=S)N(c5ccc(C#N)c(C(F)(F)F)c5)C(=O)C4(C)C)cc2)OC(=O)CCc2cn(nn2)CCCCCC(=O)O3)cc1 (stereo partly drawn) [Example 621, (93R,95S,11S,Z)-11-(tert-butyl)-22-(2-(4-(3-(4-cyano-3-(trifluoromethyl)phenyl)-5,5-dimethyl-4-oxo-2-thioxoimidazolidin-1-yl)phenoxy)ethyl)-N-((S)-1-(4-(4-methylthiazol-5-yl)phenyl)ethyl)-7,10,13,24-tetraoxo-11H-8,15,19,23-tetraoxa-12-aza-1(1,4)-triazola-9(3,1)-pyrrolidinacyclohexaco-saphane-95-carboxamide]
Dmax (VCaP, read-out: VCaP Dmax (%)): < 25% | DC50 [1]: > 501 nM

Cc1ncsc1-c1ccc([C@H](C)NC(=O)[C@@H]2C[C@@H](O)CN2C(=O)[C@@H](NC(=O)CN2CCO[C@H](CN3CCO[C@@H](COc4ccc(N5C(=S)N(c6ccc(C#N)c(C(F)(F)F)c6)C(=O)C5(C)C)cc4)C3)C2)C(C)(C)C)cc1 [Example 622, (2S,4R)-1-((S)-2-(2-((R)-2-(((R)-2-((4-(3-(4-cyano-3-(trifluoromethyl)phenyl)-5,5-dimethyl-4-oxo-2-thioxoimidazolidin-1-yl)phenoxy)methyl)mor-pholino)methyl)mor-pholino)acetamido)-3,3-dimethylbutanoyl)-4-hydroxy-N-((S)-1-(4-(4-methylthiazol-5-yl)phenyl)ethyl)pyrrolidine-2-carboxamide]
Dmax (VCaP, read-out: VCaP Dmax (%)): < 25% | DC50 [1]: > 501 nM

Cc1ncsc1-c1ccc([C@H](C)NC(=O)C2C[C@@H](O)CN2C(=O)C(NC(=O)CN2CCC(OCCOc3ccc(C(=O)N[C@H]4C(C)(C)[C@H](Oc5ccc(C#N)c(Cl)c5)C4(C)C)cc3)CC2)C(C)(C)C)cc1 (stereo partly drawn) [Example 623, (2S,4R)-1-((S)-2-(2-(4-(2-(4-(((1r,3r)-3-(3-chloro-4-cyanophenoxy)-2,2,4,4-tetramethylcyclobutyl)carbamoyl)phenoxy)eth-oxy)piperidin-1-yl)acetamido)-3,3-dimethylbutanoyl)-4-hydroxy-N-((S)-1-(4-(4-methylthiazol-5-yl)phenyl)ethyl)pyrrolidine-2-carboxamide]
DC50 [2]: < 50 nM | Dmax [3]: > 71%

Cc1ncsc1-c1ccc([C@H](C)NC(=O)[C@@H]2CC(O)CN2C(=O)[C@H](C(C)C)n2nccc2OCCCCCNc2ccc(C(=O)N[C@H]3C(C)(C)[C@H](Oc4ccc(C#N)c(Cl)c4)C3(C)C)cc2)cc1 (stereo partly drawn) [Example 624, (2S,4R)-1-((S)-2-(5-((5-((4-(((1r,3r)-3-(3-chloro-4-cyanophenoxy)-2,2,4,4-tetramethylcyclobutyl)carbamoyl)phenyl)amino)pentyl)oxy)-1H-pyrazol-1-yl)-3-methylbutanoyl)-4-hydroxy-N-((S)-1-(4-(4-methylthiazol-5-yl)phenyl)ethyl)pyrrolidine-2-carboxamide]
DC50 [2]: > 501 nM | Dmax [3]: < 25%

Cc1ncsc1-c1ccc([C@H](C)NC(=O)[C@@H]2CC(O)CN2C(=O)[C@H](C(C)C)n2nccc2OCCCCCNc2ccc(C(=O)N[C@H]3C(C)(C)[C@H](Oc4ccc(C#N)c(Cl)c4)C3(C)C)cc2)cc1 (stereo partly drawn) [Example 625, (2S,4R)-1-((R)-2-(5-((5-((4-(((1r,3r)-3-(3-chloro-4-cyanophenoxy)-2,2,4,4-tetramehtylcyclobutyl)carbamoyl)phenyl)amino)pentyl)oxy)-1H-pyrazol-1-yl)-3-methylbutanoyl)-4-hydroxy-N-((S)-1-(4-(4-methylthiazol-5-yl)phenyl)ethyl)pyrrolidine-2-carboxamide]
VCaP Dmax (%) (VCaP cells; Table 36): ++ (26% ≤ Dmax ≤ 50%) | DC50 [2]: > 501 nM

Cc1ncsc1-c1ccc([C@H](C)NC(=O)[C@@H]2C[C@@H](O)CN2C(=O)[C@H](C(C)C)n2cc(Oc3ccc(OC4CCC(Oc5ccc(N6C(=S)N(c7ccc(C#N)c(C(F)(F)F)c7)C(=O)C6(C)C)cc5)CC4)nc3)cn2)cc1 (stereo partly drawn) [Example 627, (2S,4R)-1-((S)-2-(4-((6-((4-(4-(3-(4-cyano-3-(trifluoromethyl)phenyl)-5,5-dimethyl-4-oxo-2-thioxoimidazolidin-1-yl)phenoxy)cyclohexyl)oxy)pyridin-3-yl)oxy)-1H-pyrazol-1-yl)-3-methylbutanoyl)-4-hydroxy-N-((S)-1-(4-(4-methylthiazol-5-yl)phenyl)ethyl)pyrrolidine-2-carboxamide]
Dmax (VCaP, read-out: VCaP Dmax (%)): 26 to 50% | DC50 [1]: > 501 nM

Cc1ncsc1-c1ccc([C@H](C)NC(=O)[C@@H]2C[C@@H](O)CN2C(=O)[C@@H](C(C)C)n2cc(Oc3ccc(OC4CCC(Oc5ccc(N6C(=S)N(c7ccc(C#N)c(C(F)(F)F)c7)C(=O)C6(C)C)cc5)CC4)nc3)cn2)cc1 (stereo partly drawn) [Example 628, (2S,4R)-1-((R)-2-(4-((6-((4-(4-(3-(4-cyano-3-(trifluoromethyl)phenyl)-5,5-dimethyl-4-oxo-2-thioxoimidazolidin-1-yl)phenoxy)cyclohexyl)oxy)pyridin-3-yl)oxy)-1H-pyrazol-1-yl)-3-methylbutanoyl)-4-hydroxy-N-((S)-1-(4-(4-methylthiazol-5-yl)phenyl)ethyl)pyrrolidine-2-carboxamide]
Dmax (VCaP, read-out: VCaP Dmax (%)): 26 to 50% | DC50 [1]: > 501 nM

Cc1ncsc1-c1ccc([C@H](C)NC(=O)C2CC3CN2C(=O)C(C(C)(C)C)NC(=O)COCCCOCCC(CCOc2ccc(N4C(=O)N(c5ccc(C#N)c(C(F)(F)F)c5)C(=O)C4(C)C)cc2)OC(=O)CCCCCn2cc(nn2)CCC(=O)O3)cc1 (stereo partly drawn) [Example 629, (63R,8S,Z)-8-(tert-butyl)-19-(2-(4-(3-(4-cyano-3-(trifluoromethyl)phenyl)-5,5-dimethyl-4-oxo-2-thioxoimidazolidin-1-yl)phenoxy)ethyl)-N-((S)-1-(4-(4-methylthiazol-5-yl)phenyl)ethyl)-4,7,10,21-tetraoxo-11H-5,12,16,20-tetraoxa-9-aza-1(4,1)-triazola-6(3,1)-pyrrolidineacyclohexaco-saphane-65-carboxamide]
Dmax (VCaP, read-out: VCaP Dmax (%)): 26 to 50% | DC50 [1]: 51 to 500 nM

Cc1ncsc1-c1ccc([C@H](C)NC(=O)[C@@H]2C[C@@H](O)CN2C(=O)[C@@H](NC(=O)COCCCCOc2ccc(-c3ccc(C(=O)N[C@H]4C(C)(C)[C@H](Oc5ccc(C#N)c(Cl)c5)C4(C)C)cc3)cc2)C(C)(C)C)cc1 [Example 630, (2S,4R)-1-((S)-2-(2-(4-((4′-(((1r,3r)-3-(3-chloro-4-cyanophenoxy)-2,2,4,4-tetramethylcyclobutyl)carbamoyl)-[1,1′-biphenyl]-4-yl)oxy)butoxy)acetamido)-3,3-dimethylbutanoyl)-4-hydroxy-N-((S)-1-(4-(4-methylthiazol-5-yl)phenyl)ethyl)pyrrolidine-2-carboxamide]
DC50 [2]: < 50 nM | Dmax (VCaP, read-out: VCaP Dmax (%), VCaP cells; Table 36): > 71%
